The values that follow come from ChEMBL document CHEMBL1152753, “BRACO19 analog dimers with improved inhibition of telomerase and hPot 1” (Bioorg Med Chem, 2009).

For assay [1], the species on record is Homo sapiens. Briefly: Stabilization of human telomeric d[5'G3(T2AG3]-3' assessed as change in melting temperature at 25 uM.
The target of assay [2] is T1, Protection of telomeres protein 1 (Homo sapiens, UniProt Q9NUX5).
T1 sequence (Q9NUX5 whole entry): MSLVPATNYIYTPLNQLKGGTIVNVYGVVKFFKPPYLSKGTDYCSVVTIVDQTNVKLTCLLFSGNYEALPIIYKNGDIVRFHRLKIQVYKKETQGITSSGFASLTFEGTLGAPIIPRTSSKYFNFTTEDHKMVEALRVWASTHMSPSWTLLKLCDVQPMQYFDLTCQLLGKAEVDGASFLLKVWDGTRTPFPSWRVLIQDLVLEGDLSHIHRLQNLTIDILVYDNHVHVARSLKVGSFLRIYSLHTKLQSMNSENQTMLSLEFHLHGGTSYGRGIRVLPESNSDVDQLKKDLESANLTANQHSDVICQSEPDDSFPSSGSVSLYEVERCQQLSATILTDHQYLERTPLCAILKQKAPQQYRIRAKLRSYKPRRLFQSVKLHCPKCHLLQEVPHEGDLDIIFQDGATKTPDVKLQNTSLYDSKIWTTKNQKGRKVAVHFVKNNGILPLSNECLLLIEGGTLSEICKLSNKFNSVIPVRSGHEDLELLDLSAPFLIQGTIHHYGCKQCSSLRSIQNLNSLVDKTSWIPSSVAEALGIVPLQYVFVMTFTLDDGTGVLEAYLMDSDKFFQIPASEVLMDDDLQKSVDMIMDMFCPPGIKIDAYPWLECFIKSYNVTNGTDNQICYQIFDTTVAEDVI
As to the kind of experiment: Inhibition of human 35S-labeled Pot1 binding to human telomeric DNA.

Assay [3] is filed under the species Homo sapiens. Briefly: Binding affinity to human telomeric d[5'G3(T2AG3]-3' DNA quadruplex assessed as major positive band at 292 nm at >1:1 drug to DNA ratio.
The species entered for assay [4] is Homo sapiens. Briefly: (§1) Inhibition of human G-quadruplex [TTAGGG]4 DNA templet extension assessed as increase in ligand-induced polymerase stop products by Taq DNA polymerase stop assay.
A short description of assay [5]: as §1.
Assay [6] addresses Telomerase reverse transcriptase (Homo sapiens, UniProt O14746). As to the kind of experiment: Inhibition of human telomerase assessed as unincorporated [alpha32P]dGTP.
The species named for assay [7] is Homo sapiens. As to the kind of experiment: Induction of G-quadruplex structure formation in human telomeric d[5'G3(T2AG3]-3' DNA assessed as major positive band at 290 nm at 1 mole ligand concentration by CD spectroscopy.
The species named for assay [8] is Homo sapiens. Briefly: Binding affinity to human telomeric d[5'G3(T2AG3]-3' DNA quadruplex assessed as major positive band at 292 nm at 1:1 drug to DNA ratio.
The nature of assay [9]: Inhibition of non G-quadruplex [TTAGAG]4 DNA templet extension assessed as ligand-induced polymerase stop products by Taq DNA polymerase stop assay.
The species entered for assay [10] is Homo sapiens. As to the kind of experiment: Induction of G-quadruplex structure formation in human telomeric d[5'G3(T2AG3]-3' DNA assessed as major positive band at 295 nm at 2 mole ligand concentration by CD spectroscopy.
The species entered for assay [11] is Homo sapiens. As to the kind of experiment: Binding affinity to human telomeric d[5'G3(T2AG3]-3' DNA quadruplex assessed as major positive band at 292 nm at 2:1 drug to DNA ratio.

For orientation: ΔTm means the change in melting temperature against a reference sample. In general, IC50 refers to the concentration that gives 50% inhibition. The EC50 is the concentration at which the effect is half-maximal.

Structures are written as SMILES. Activity calls are given as the source filed them. No cut-off for these calls is given here.

Telomerase reverse transcriptase, sequence (O14746 whole entry): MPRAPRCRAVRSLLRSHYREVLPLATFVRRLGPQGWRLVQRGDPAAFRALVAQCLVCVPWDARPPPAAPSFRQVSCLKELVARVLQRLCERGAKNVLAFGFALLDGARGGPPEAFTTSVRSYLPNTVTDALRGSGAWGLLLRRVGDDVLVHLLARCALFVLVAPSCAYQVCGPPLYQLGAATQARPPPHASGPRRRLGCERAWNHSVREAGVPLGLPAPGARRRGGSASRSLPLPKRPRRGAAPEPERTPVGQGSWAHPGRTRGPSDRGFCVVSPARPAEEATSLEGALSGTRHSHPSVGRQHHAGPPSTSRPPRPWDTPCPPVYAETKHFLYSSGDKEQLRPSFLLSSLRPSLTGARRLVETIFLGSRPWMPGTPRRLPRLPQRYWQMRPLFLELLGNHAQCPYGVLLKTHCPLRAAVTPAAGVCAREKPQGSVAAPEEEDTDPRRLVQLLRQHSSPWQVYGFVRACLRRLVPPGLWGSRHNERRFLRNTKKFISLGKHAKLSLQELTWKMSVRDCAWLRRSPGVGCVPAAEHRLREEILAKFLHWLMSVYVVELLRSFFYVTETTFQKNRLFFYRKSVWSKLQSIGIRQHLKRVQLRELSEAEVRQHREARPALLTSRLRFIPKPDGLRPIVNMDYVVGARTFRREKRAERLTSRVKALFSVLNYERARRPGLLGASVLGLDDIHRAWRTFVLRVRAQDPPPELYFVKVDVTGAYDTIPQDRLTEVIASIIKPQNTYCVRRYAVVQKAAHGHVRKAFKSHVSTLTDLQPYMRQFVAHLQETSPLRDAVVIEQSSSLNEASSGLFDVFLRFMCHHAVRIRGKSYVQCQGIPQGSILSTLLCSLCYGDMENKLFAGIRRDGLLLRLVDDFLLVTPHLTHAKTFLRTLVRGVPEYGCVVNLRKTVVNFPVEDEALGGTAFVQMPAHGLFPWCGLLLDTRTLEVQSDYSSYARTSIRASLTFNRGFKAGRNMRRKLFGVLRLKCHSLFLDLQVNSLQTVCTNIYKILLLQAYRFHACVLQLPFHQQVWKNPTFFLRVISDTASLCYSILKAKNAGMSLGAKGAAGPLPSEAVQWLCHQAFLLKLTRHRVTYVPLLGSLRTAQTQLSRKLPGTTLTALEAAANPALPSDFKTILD

For `O=C(CCN1CCCC1)Nc1ccc2c(NCOCCOCNc3c4ccc(NC(=O)CCN5CCCC5)cc4nc4cc(NC(=O)CCN5CCCC5)ccc34)c3ccc(NC(=O)CCN4CCCC4)cc3nc2c1`, the ΔTm in the assay filed under Homo sapiens [1] worked out at 20 °C. Further, the half-maximal inhibitory concentration (IC50) in assay [2] came out at 45 µM; in assay [6], 9 µM. Besides, the outcome in the assay filed under Homo sapiens [3] was inactive. The Activity entry (in the assay filed under Homo sapiens [4]; in assay [9]) was “Dose-dependent effect” each time. The values for the EC50 in assay [5] and in assay [9] were 0.2 µM and 3.9 µM, respectively. For the same compound, the result in the assay listed under Homo sapiens [7] and in the assay filed under Homo sapiens [8] was Active.

For the compound `O=C(CCN1CCCC1)Nc1ccc2c(NCCCCCCNc3c4ccc(NC(=O)CCN5CCCC5)cc4nc4cc(NC(=O)CCN5CCCC5)ccc34)c3ccc(NC(=O)CCN4CCCC4)cc3nc2c1`, the ΔTm in the assay listed under Homo sapiens [1] was 23 °C. For the same compound, the IC50 in assay [2] amounted to 17 µM; in [6], 4 µM. The concentration giving a half-maximal response (EC50) in assay [5] was 0.85 µM; in assay [9], 4.5 µM. Also, the result in the assay listed under Homo sapiens [7] was Active.

For `CN(C)c1ccc(Nc2c3ccc(NC(=O)CCN4CCCC4)cc3nc3cc(NC(=O)CCN4CCCC4)ccc23)cc1`, the ΔTm in the assay filed under Homo sapiens [1] worked out at 18 °C. The results for the IC50 in [2] and in assay [6] were 63 µM and 5.4 µM, respectively. The Activity entry (in the assay listed under Homo sapiens [4]; in [9]) was “Dose-dependent effect” each time. In addition, the EC50 in assay [5] was 1.8 µM; in [9], 19.1 µM. For the same compound, the outcome in the assay filed under Homo sapiens [10] and in the assay listed under Homo sapiens [11] was Active.

For the compound `O=C(CCN1CCCC1)Nc1ccc2c(NCNCCNCNc3c4ccc(NC(=O)CCN5CCCC5)cc4nc4cc(NC(=O)CCN5CCCC5)ccc34)c3ccc(NC(=O)CCN4CCCC4)cc3nc2c1`, the thermal shift (ΔTm) in the assay listed under Homo sapiens [1] was 28 °C. In addition, the concentration for half-maximal inhibition (IC50) in assay [2] turned out to be 11 µM; in assay [6], 7.5 µM. In addition, the concentration giving a half-maximal response (EC50) in assay [5] is 0.071 µM; in [9], 0.36 µM. Besides, the result in the assay filed under Homo sapiens [7] was Active.
